Results published in EP0428107A2, “Use of quinolyl-and isoquinolyloxanole-2-ones for the production of a medicament for the treatment of multi-drug resistant tumors” (MERRELL DOW PHARMACEUTICALS INC., priority 1989, dated 1991).

Test system: CHO^R cells
Assay: Reversal of multidrug resistance: cell growth of vinblastine-resistant CHO^R cells, Coulter counter cell count
[1] = 72 h, read-out: % Inhibition of Cell Growth Compound Only

| SMILES | effect on cell growth (VLB alone at 0.2 µg/ml, 72 hr) | inhibition at 0.1 µg/mL [1] | inhibition at 1 µg/mL [1] | inhibition at 5 µg/mL [1] | inhibition at 10 µg/mL [1] | % Inhibition of Cell Growth Compound + VLB (compound 0.1 µg/ml + vinblastine 0.2 µg/ml, 72 hr) | % Inhibition of Cell Growth Compound + VLB (compound 1 µg/ml + vinblastine 0.2 µg/ml, 72 hr) | % Inhibition of Cell Growth Compound + VLB (compound 5 µg/ml + vinblastine 0.2 µg/ml, 72 hr) | % Inhibition of Cell Growth Compound + VLB (compound 10 µg/ml + vinblastine 0.2 µg/ml, 72 hr) |
| --- | --- | --- | --- | --- | --- | --- | --- | --- | --- |
| CC[C@]1(O)C[C@@H]2CN(CCc3c([nH]c4ccccc34)[C@@](C(=O)OC)(c3cc4c(cc3OC)N(C)[C@H]3[C@@](O)(C(=O)OC)[C@H](OC(C)=O)[C@]5(CC)C=CCN6CC[C@]43[C@@H]65)C2)C1 [VLB, vinblastine, reference compound] | did not have any effect on cell growth | – | – | – | – | – | – | – | – |
| CCCc1[nH]c(=O)oc1-c1ccnc2ccccc12 [4-Propyl-5-(4-Quinolinyl)-1-(3H)-Oxazolone] | – | 0% | 0% | 0% | 14% | 4% | 43% | 93% | 93% |
